Laboratory results reported in patent publication US7557268B1, “Promoter for expression of a gene and response to infection or wounding” (priority 1999, dated 2009).

Test system: pAG2339 promoter deletion (gus reporter) in PR8-2, PR8-3, PR8-12
Assay type: cell-based, tobacco

## O=C(O)c1ccccc1O [SA, salicylic acid]
  change of reporter gene activity (in words): no significant change
